Entries after “also recorded” stand apart in the source; their conditions may differ.
Columns and labels:
[1] = molecular target: T1, DnaK (Escherichia coli, UniProt P0A6Y8); test: DnaK ATPase activity assay; assay type: biochemical; details: 100 µM DBeQ, 37 °C
T1 construct: full-length E. coli DnaK (residues 1–638); made in house; host or cells: E. coli BL21(DE3)
Procedure: To determine the ATPase activity of DnaK, 18 μl of DnaK solution or DnaK NBD solution prepared in buffer C was mixed with 1 μl of the investigated compounds or DMSO as a control. Samples without DnaK were used as control blanks. The samples were preincubated for 10 min at 37 °C. The reaction was initiated by adding 1 μl of 100-mM ATP bringing the final concentration of DnaK to 1.1 μM or DnaK NBD to 3.4 μM. The samples were incubated at 37 °C for 70 min for DnaK or 75 min for NBD. The concentration of inorganic phosphate produced from ATP in the presence of DnaK was determined as described above for ClpB.

[2] = molecular target: T2, DnaK–DnaJ–GrpE (KJE) (Escherichia coli, UniProt P0A6Y8); test: Aggregate reactivation assay with KJE alone; assay type: biochemical
T2 construct: full-length E. coli DnaK (residues 1–638); made in house; host or cells: E. coli BL21(DE3) for DnaK
Procedure: G6PDH was chemically denatured by mixing 5 μl of the G6PDH stock solution (441 μM) with 5 μl of buffer A (10 M urea, 16% glycerol, 40-mM DTT) preheated at 47 °C. The samples of G6PDH in buffer A were incubated for 5 min at 47 °C. Subsequently, 5 μl of denatured G6PDH was mixed with 95 μl of buffer B (50-mM Tris-HCl, pH 7.4, 20-mM Mg(OAc)2, 30-mM KCl, 1-mM EDTA, 1-mM β-mercaptoethanol) preheated at 47 °C to initiate protein refolding, which, under these conditions, is inefficient and leads to misfolding and aggregation of G6PDH ([69]). G6PDH aggregate production was arrested after 1 min (for refolding by KJE) or 15 min (for refolding by KJE with ClpB) by transferring into ice for 2 min. […] The plate was inserted into Synergy H1 plate reader (BioTek, Winooski, VT) with the chamber temperature at 30 °C, and the sample absorbance at 340 nm was measured after 10 min. The amount of NADPH produced was calculated based on the NADPH molar extinction coefficient, Ɛ340 = 6220 [M^−1 ⋅ cm^−1].
Firefly luciferase (220 μM) was diluted 300-fold in PBS buffer with 1 mg/ml bovine serum albumin and then incubated for 12 min at 45 °C. […] Luminescence was measured using Synergy H1 plate reader (BioTek, Winooski, VT).

[3] = molecular target: T3, ClpB hexamers (Escherichia coli, UniProt P63284); test: Sedimentation velocity analytical ultracentrifugation of ClpB; details: 50 µM DBeQ, 1 mM ATPγS, 1 mg/ml ClpB
T3 construct: made in house
Procedure: Protein samples (0.5 ml) of wt ClpB and its variants W462F and W543F were dialyzed against 3 changes of 1 l of buffer AUC (50-mM Tris-HCl, pH 7.4, 200-mM KCl, 20-mM MgCl2, 1-mM EDTA, 0.5-mM TCEP). After dialysis, the samples were centrifuged (15 min, 13,000 RPM, 4 °C). The supernatants were collected, and the protein concentration was determined with the Bradford assay. Sedimentation velocity experiments were performed in Beckman Optima XL-I analytical ultracentrifuge equipped with a 4-cell rotor and 2-sector cells. The ClpB samples were diluted to 1 mg/ml in the AUC buffer supplemented with DMSO (5% (v/v) final concentration) with 1-mM ATPɤS, with or without 50-μM DBeQ. Centrifugation was performed at 48,000 RPM at 20 °C. The sedimentation profiles were collected using the interference detection system and analyzed with the Origin software supplied by the instrument manufacturer using the time-derivative method of Stafford ([71]). Observed sedimentation coefficients were corrected to values corresponding to the density and viscosity of water (s20,w) using Sednterp software (www.jphilo.mailway.com) with additional corrections for the presence of 5% DMSO ([72]).

T1 sequence (P0A6Y8 whole entry, the tested form may be a part): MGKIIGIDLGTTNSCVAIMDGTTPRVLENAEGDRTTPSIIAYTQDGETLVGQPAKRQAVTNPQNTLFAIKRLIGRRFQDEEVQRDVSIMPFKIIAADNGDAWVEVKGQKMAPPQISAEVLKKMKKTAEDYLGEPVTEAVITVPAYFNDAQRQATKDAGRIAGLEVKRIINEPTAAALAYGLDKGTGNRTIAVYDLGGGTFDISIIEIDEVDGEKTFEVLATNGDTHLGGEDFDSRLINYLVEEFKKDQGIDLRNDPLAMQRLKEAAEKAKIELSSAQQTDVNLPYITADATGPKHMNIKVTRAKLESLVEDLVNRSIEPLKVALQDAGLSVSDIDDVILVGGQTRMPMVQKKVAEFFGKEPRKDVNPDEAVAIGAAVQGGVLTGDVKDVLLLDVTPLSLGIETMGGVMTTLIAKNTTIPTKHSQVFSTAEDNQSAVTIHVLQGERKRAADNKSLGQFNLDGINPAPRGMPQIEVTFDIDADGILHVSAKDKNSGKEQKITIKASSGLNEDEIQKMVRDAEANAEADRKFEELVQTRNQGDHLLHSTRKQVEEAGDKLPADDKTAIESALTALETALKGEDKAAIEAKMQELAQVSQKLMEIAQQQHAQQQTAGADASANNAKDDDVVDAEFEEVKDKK
T2 sequence (P0A6Y8 whole entry, the tested form may be a part): as above
T3 sequence (P63284 whole entry): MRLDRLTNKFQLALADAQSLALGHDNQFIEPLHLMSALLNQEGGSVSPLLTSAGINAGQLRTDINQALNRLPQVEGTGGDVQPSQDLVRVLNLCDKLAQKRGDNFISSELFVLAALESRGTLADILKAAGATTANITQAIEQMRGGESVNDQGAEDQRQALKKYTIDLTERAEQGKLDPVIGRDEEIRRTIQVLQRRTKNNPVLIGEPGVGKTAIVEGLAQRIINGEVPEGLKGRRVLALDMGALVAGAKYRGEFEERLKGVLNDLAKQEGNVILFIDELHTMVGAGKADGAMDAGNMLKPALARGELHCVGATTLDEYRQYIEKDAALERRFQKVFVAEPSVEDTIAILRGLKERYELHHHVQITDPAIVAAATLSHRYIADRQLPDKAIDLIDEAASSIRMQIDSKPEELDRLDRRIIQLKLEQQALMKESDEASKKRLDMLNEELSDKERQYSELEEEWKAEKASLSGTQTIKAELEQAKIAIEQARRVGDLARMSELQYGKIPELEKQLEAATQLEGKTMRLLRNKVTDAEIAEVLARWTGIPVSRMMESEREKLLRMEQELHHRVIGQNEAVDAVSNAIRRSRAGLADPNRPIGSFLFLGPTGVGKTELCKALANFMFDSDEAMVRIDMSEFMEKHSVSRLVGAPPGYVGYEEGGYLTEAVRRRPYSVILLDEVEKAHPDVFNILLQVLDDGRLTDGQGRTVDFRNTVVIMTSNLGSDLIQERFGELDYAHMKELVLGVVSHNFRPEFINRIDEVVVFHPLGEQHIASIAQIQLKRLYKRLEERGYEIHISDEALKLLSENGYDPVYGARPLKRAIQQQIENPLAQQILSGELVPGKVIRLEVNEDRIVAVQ

For `c1ccc(CNc2nc(NCc3ccccc3)c3ccccc3n2)cc1` [DBeQ, N^2,N^4-dibenzylquinazoline-2,4-diamine], the “effect on DnaK ATPase activity” value [1] was “did not detect inhibition; also recorded: did not affect”, the “inhibition of DnaK chaperone activity in vitro” value [2] was “inhibited” and the “inhibition of ClpB-independent reactivation of aggregated luciferase” value ([2]; KJE alone, 20 min, 25 °C) was “inhibited”. For the same molecule, the “dissociation of ClpB hexamers” value [3] was “does not induce dissociation”.

— paper PMC7948422, “Repurposing p97 inhibitors for chemical modulation of the bacterial ClpB–DnaK bichaperone system” (The Journal of Biological Chemistry, 2020)
